Data from publication PMC10353187, “Discovery of a new potent oxindole multi-kinase inhibitor among a series of designed 3-alkenyl-oxindoles with ancillary carbonic anhydrase inhibitory activity as antiproliferative agents” (BMC Chemistry, 2023).

Assays:
Test in all cases: NCI-60 single-dose antiproliferative assay (SRB)
Assay type in all cases: cell-based
SNB-75 = details: Homo sapiens; 10 μM single dose; SNB-75, CNS cancer; read-out: Cell Growth inhibition Percent
How it was run: (§1)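 A 48 h exposure to 10 µM compound, in triplicate wells, followed 24 h of cell attachment in RPMI 1640 with 5% FBS and 2 mM glutamine. TCA-fixed cells were stained with SRB and read at 515 nm to give percent growth relative to controls.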

M14 = details: Homo sapiens; 10 μM single dose; M14, Melanoma; read-out: Cell Growth inhibition Percent
How it was run: as §1

CAKI-1 = details: Homo sapiens; 10 μM single dose; CAKI-1, Renal cancer; read-out: Cell Growth inhibition Percent
How it was run: as §1

NCI-H23 = details: Homo sapiens; 10 μM single dose; NCI-H23, Non-small cell lung cancer; read-out: Cell Growth inhibition Percent
How it was run: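 Single dose 10 µM (final), 48 h, 37 °C, 5% CO2; RPMI 1640/5% FBS. Endpoint: TCA fixation, 0.4% SRB, absorbance 515 nm. % growth = (Ti–Tz)/(C–Tz)×100, or (Ti–Tz)/Tz×100 when Ti < Tz; reported as GI%.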

LOX IMVI = details: Homo sapiens, 10 μM single dose, Melanoma, read-out: Cell Growth inhibition Percent
How it was run: as §1

RXF 393 = details: Homo sapiens; 10 μM single dose; RXF 393, Renal cancer; read-out: Cell Growth inhibition Percent
How it was run: as §1

SF-539 = details: Homo sapiens; 10 μM single dose; SF-539, CNS cancer; read-out: Cell Growth inhibition Percent
How it was run: as §1

786-0 = details: Homo sapiens; 10 μM single dose; 786-0, Renal cancer; read-out: Cell Growth inhibition Percent
How it was run: as §1

IGROV1 = details: Homo sapiens, IGROV-1; 10 μM single dose; IGROV1, Ovarian Cancer; read-out: Cell Growth inhibition Percent
How it was run: as §1

SK-MEL-5 = details: Homo sapiens; 10 μM single dose; SK-MEL-5, Melanoma; read-out: Cell Growth inhibition Percent
How it was run: as §1

MALME-3 M = details: Homo sapiens, 10 μM single dose, Melanoma, read-out: Cell Growth inhibition Percent
How it was run: as §1

OVCAR-8 = details: Homo sapiens; 10 μM single dose; OVCAR-8, Ovarian Cancer; read-out: Cell Growth inhibition Percent
How it was run: as §1

NCI-H522 = details: Homo sapiens; 10 μM single dose; NCI-H522, Non-small cell lung cancer; read-out: Cell Growth inhibition Percent
How it was run: as §1

SK-OV-3 = details: Homo sapiens; 10 μM single dose; SK-OV-3, Ovarian Cancer; read-out: Cell Growth inhibition Percent
How it was run: as §1

T-47D = details: Homo sapiens, T47D, 10 μM single dose, Breast cancer, read-out: Cell Growth inhibition Percent
How it was run: as §1

MDA-MB-435 = details: Homo sapiens; 10 μM single dose; MDA-MB-435, Melanoma; read-out: Cell Growth inhibition Percent
How it was run: as §1

HCT-15 = details: Homo sapiens; 10 μM single dose; HCT-15, Colon cancer; read-out: Cell Growth inhibition Percent
How it was run: as §1

RPMI-8226 = details: Homo sapiens; 10 μM single dose; RPMI-8226, Leukemia; read-out: Cell Growth inhibition Percent
How it was run: as §1

Row | Structure (SMILES) | inhibition at 10 µM (SNB-75) [%] | inhibition at 10 µM (M14) [%] | inhibition at 10 µM (CAKI-1) [%] | inhibition at 10 µM (NCI-H23) [%] | inhibition at 10 µM (LOX IMVI) [%] | inhibition at 10 µM (RXF 393) [%] | inhibition at 10 µM (SF-539) [%] | inhibition at 10 µM (786-0) [%] | inhibition at 10 µM (IGROV1) [%] | inhibition at 10 µM (SK-MEL-5) [%] | inhibition at 10 µM (MALME-3 M) [%] | inhibition at 10 µM (OVCAR-8) [%] | inhibition at 10 µM (NCI-H522) [%] | inhibition at 10 µM (SK-OV-3) [%] | inhibition at 10 µM (T-47D) [%] | inhibition at 10 µM (MDA-MB-435) [%] | inhibition at 10 µM (HCT-15) [%] | inhibition at 10 µM (RPMI-8226) [%]
1 | O=C1Nc2ccccc2C1=CNc1ccc(C(=O)O)cc1 [Compound 4c, 4-{[(2-Oxoindolin-3-ylidene)methyl]amino}benzoic acid] | 44.3 | 2.15 | 29.1 | 7.13 | 6.93 | 29.6 | 2.79 | 4.08 | 24.1 | 1.74 | 0.23 | – | – | – | – | – | – | –
2 | NS(=O)(=O)c1nnc(NC=C2C(=O)Nc3ccccc32)s1 [Compound 4d, 5-{[(2-Oxoindolin-3-ylidene)methyl]amino}-1,3,4-thiadiazole-2-sulfonamide] | 18.8 | 6.04 | 13.5 | 3.7 | – | – | 3.69 | 1.8 | 23.5 | 1.52 | – | 0.12 | 0.13 | 0.47 | 14.8 | – | – | –
3 | NS(=O)(=O)N/C=C1/C(=O)Nc2ccccc21 [Compound 5, 3-(sulfamidmethylene)indoline-2-one] | 16.5 | 2.01 | 11.2 | 13.3 | – | – | – | – | 18.6 | 1.04 | – | – | 5.36 | 5.43 | 7.19 | – | – | –
4 | O=C1Nc2ccccc2C1=CNc1ccc(C(=O)Nc2ccc(S(=O)(=O)Nc3ncccn3)cc2)cc1 [Compound 9b, 4-{[(2-Oxoindolin-3-ylidene)methyl]amino}-N-{4-[N-(pyrimidin-2-yl)sulfamoyl]phenyl}benzamide] | 31.3 | 1.44 | 27.6 | 9.28 | 7.22 | – | 5.04 | 4.99 | 21.3 | 6.95 | 2.09 | – | – | – | – | – | – | –
5 | NS(=O)(=O)c1ccc(NCc2ccc(NC=C3C(=O)Nc4ccccc43)cc2)cc1 [Compound 11a, 4-{[4-({[2-Oxoindolin-3-ylidene]methyl}amino)benzyl]amino}benzenesulfonamide] | 32.8 | – | 34.7 | 12 | 3.3 | 26.2 | – | 0.56 | 32.7 | 5.94 | 3.16 | – | – | – | 6.76 | 2.04 | – | –
6 | O=C1Nc2ccccc2C1=CNc1ccc(CNc2ccc(S(=O)(=O)Nc3ncccn3)cc2)cc1 [Compound 11b, 4-{[4-({[2-Oxoindolin-3-ylidene]methyl}amino)benzyl]amino}-N-(pyrimidin-2-yl)benzenesulfonamide] | 16.6 | 0.4 | 48.4 | 17.4 | 8.3 | – | – | – | 23.5 | 15.2 | – | 1.39 | 6.92 | – | 27.5 | 32 | 9.43 | 28.9
7 | O=C1Nc2ccccc2C1=CNc1ccc(C(=O)C=CNc2nccs2)cc1 [Compound 13c, 3-{[(4-{3-[Thiazol-2-ylamino]acryloyl}phenyl)amino]methylene}indolin-2-one] | – | – | 30.8 | 25.9 | 9.06 | – | 1.96 | – | 5.94 | 5.29 | – | – | 2.31 | 3.75 | – | 1.15 | 12 | 35
8 | O=C(Nc1ccc(NC=C2C(=O)Nc3ccccc32)cc1)Nc1nccs1 [Compound 15c, 1-{4-[((2-Oxoindolin-3-ylidene)methyl)amino]phenyl}-3-(thiazol-2-yl)urea] | 66.6 | 81.5 | 67.1 | 62.2 | 64.9 | 120 | 66.4 | 47.1 | 70.5 | 73.2 | 53.1 | 44.3 | – | 45 | 58.8 | 153 | 71 | 16.4
